# Reference: PubChem BioAssay (NCI)
# Several values for one entry are separate records, joined by “and”; a condition that tells them apart may be missing. Identical values can stand only once.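 Where inhibition never reached the appropriate level, the endpoint shown equals the highest concentration tested. Otherwise, values were interpolated linearly from a five-concentration, 48-hour dose response in 96-well plates. GI50 marks 50% less growth. TGI: concentration producing complete growth inhibition.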
# Tests used:
# Assay in all cases: DTP human tumour cell line panel, 48 h
# A498 renal = tested on: A498 renal
# SR leukemia = tested on: SR leukemia
# SK-MEL-2 melanoma = tested on: SK-MEL-2 melanoma
# OVCAR-4 ovarian = tested on: OVCAR-4 ovarian
# OVCAR-3 ovarian = tested on: OVCAR-3 ovarian
# HS 578T breast = tested on: HS 578T breast
# MCF7 breast = tested on: MCF7 breast
# LOX IMVI melanoma = tested on: LOX IMVI melanoma
# UACC-62 melanoma = tested on: UACC-62 melanoma
# MOLT-4 leukemia = tested on: MOLT-4 leukemia
Compound,GI50 (A498 renal) [µM],TGI (A498 renal),GI50 (SR leukemia) [µM],TGI (SR leukemia),GI50 (SK-MEL-2 melanoma),TGI (SK-MEL-2 melanoma),GI50 (OVCAR-4 ovarian),TGI (OVCAR-4 ovarian),GI50 (OVCAR-3 ovarian),TGI (OVCAR-3 ovarian),GI50 (HS 578T breast),TGI (HS 578T breast),GI50 (MCF7 breast) [µM],TGI (MCF7 breast),GI50 (LOX IMVI melanoma),TGI (LOX IMVI melanoma),GI50 (UACC-62 melanoma) [µM],TGI (UACC-62 melanoma),GI50 (MOLT-4 leukemia),TGI (MOLT-4 leukemia)
COc1ccc2c(O)c(/C=C3\N=Nc4ncccc43)oc2c1C[C@H]1CCNC[C@H]1F,0.238,2.91 µM,0.03,3.18 µM,1.1 µM,3.73 µM,0.566 µM,6.84 µM,0.431 µM,11.4 µM,0.16 µM,5.34 µM,0.207,9.18 µM,0.304 µM,1.78 µM,0.476,2.38 µM,0.294 µM,1.62 µM
COc1cc(/C=C2\CCCC3C2=Nc2ccccc2NC3c2cc(OC)c(OC)c(OC)c2)cc(OC)c1OC (stereo not drawn),1.49,6.41 µM,0.723,3.14 µM,3.1 µM,8.33 µM,2.14 µM,> 100 µM,2.08 µM,6.07 µM,4.75 µM,> 100 µM,2.48,> 100 µM,1.81 µM,5.86 µM,1.37,3.52 µM,2.31 µM,5.4 µM
C[C@@H]1[C@H]2[C@H](C=C3[C@@H]4CC[C@H]5Cc6nc7c(nc6C[C@]5(C)[C@H]4C[C@@H](O)[C@@]32C)C[C@@H]2CC[C@H]3C4=C[C@@H]5O[C@@]6(CC[C@](C)(CO)O6)[C@@H](C)[C@@]5(O)[C@@]4(C)[C@H](O)C[C@@H]3[C@@]2(C)C7)O[C@]12CCC(C)(C)O2,0.236,0.543 µM,0.322,2.9 µM,0.9 µM,18 µM,7.05 µM,> 69.7 µM,5.1 µM,31.8 µM,0.165 µM,0.89 µM,0.49,15.3 µM,0.51 µM,3.6 µM,0.348,2.54 µM,0.259 µM,0.857 µM
Nc1ccc(-c2ccc(Nc3cc(S(=O)(=O)O)c(N)c4c3C(=O)c3ccccc3C4=O)cc2)c(S(=O)(=O)O)c1,,> 100 µM,,> 100 µM,,> 100 µM,,> 100 µM,,> 100 µM,,> 100 µM,,> 100 µM,,> 100 µM,,> 100 µM,,> 100 µM
O=C1c2ccc3c4c(ccc(c24)C(=O)N1CCCNCc1ccccc1)C(=O)N(CCCNCc1ccccc1)C3=O,0.951,2.18 µM,0.0756,0.505 µM,0.178 µM,0.363 µM,0.119 µM,0.248 µM,0.13 µM,0.476 µM,0.531 µM,3.24 µM,0.0808,0.33 µM,0.135 µM,0.363 µM,0.18,0.333 µM,0.0858 µM,0.437 µM
CC(C)(C)OC(=O)N1CC(Cn2cc(C(F)(F)F)c3c(Cl)ncnc32)C1,4.81,16.8 µM,0.726,> 100 µM,1.84 µM,3.47 µM,10.2 µM,23.2 µM,1.92 µM,3.6 µM,2.36 µM,6.55 µM,2.13,6.15 µM,1.75 µM,3.27 µM,1.85,3.65 µM,2.39 µM,6.28 µM
c1ccc(CCCNc2nnnc3ccccc23)cc1,,> 100 µM,,> 100 µM,,> 100 µM,,> 100 µM,,> 100 µM,,> 100 µM,,> 100 µM,,> 100 µM,,> 100 µM,,> 100 µM
COc1cc([N+](=O)[O-])c(S(=O)(=O)O)cc1N,,> 100 µM,,> 100 µM,,> 100 µM,,> 100 µM,,> 100 µM,,> 100 µM,,> 100 µM,,> 100 µM,,> 100 µM,,> 100 µM
CN(C)CCN1C(=O)c2cccc3c(N)ccc(c23)C1=O,11.5,> 25 µM,4.59,13.3 µM,11.6 µM,> 25 µM,14.1 µM,> 25 µM,15.9 µM,> 25 µM,15.7 µM,> 25 µM,7.59,> 25 µM,8.44 µM,> 25 µM,7.39,> 25 µM,6.82 µM,20.2 µM
S=c1nc[nH]c2nc[nH]c12,104,584 µM and 187 µM,0.43,72.7 µM and 239 µM,> 100 µM and 26.2 µM,> 100 µM and 664 µM and > 750 µM,70.8 µM and 61.2 µM,> 100 µM and 618 µM and > 750 µM,0.762 µM and 3.66 µM,> 100 µM and 537 µM and > 750 µM,9.62 µM and 30.8 µM,> 100 µM and 561 µM and > 612 µM,,> 100 µM and 512 µM and > 413 µM,0.321 µM and 3.01 µM,41.4 µM and 111 µM and 192 µM,,> 100 µM and 512 µM and > 750 µM,2.34 µM and 13.2 µM,26.8 µM and 245 µM and 31.6 µM
COc1ccccc1-c1ccc2nc(NC(=O)Nc3cc(C(F)(F)F)cc(C(F)(F)F)c3)sc2c1,1.64,3.9 µM,1.76,5.25 µM,2.09 µM,6.09 µM,2.12 µM,9.96 µM,1.58 µM,4.58 µM,2.35 µM,7.67 µM,2.28,10.9 µM,1.68 µM,3.13 µM,1.56,3.26 µM,1.58 µM,7.24 µM
CCN1CCC2(CC1)NC(=O)c1c(c3ccc(Cl)c(Cl)c3n1C)C2C#N (stereo not drawn),1.34,3.32 µM,1.76,5.69 µM,2.02 µM,4.42 µM,3.83 µM,15.1 µM,,,1.81 µM,5.57 µM,1.56,3.28 µM,1.65 µM,3.34 µM,1.77,3.32 µM,2.43 µM,8.66 µM
NC(=O)c1ccc2nc(-c3ccc(C4(N)CCC4)cc3)c(-c3ccccc3)n2n1,0.0734,0.642 µM,7.65,31.2 µM,15.2 µM,31.5 µM,16 µM,44.6 µM,0.817 µM,22 µM,0.863 µM,10 µM,0.158,17.5 µM,10.5 µM,24 µM,10.3,22.7 µM,0.741 µM,19.2 µM
Nc1c(S(=O)(=O)O)cc(Nc2cccc(S(N)(=O)=O)c2)c2c1C(=O)c1ccccc1C2=O,,> 100 µM,,> 100 µM,,> 100 µM,,> 100 µM,,> 100 µM,,69.9 µM,,> 100 µM,,> 100 µM,,58.7 µM,,> 100 µM
Cc1cc(C(=O)N[C@@H](CCC(=O)O)C(=O)O)sc1CC[C@@H]1CNc2nc(N)[nH]c(=O)c2C1,0.0598,> 100 µM,< 0.01,> 100 µM,7.78 µM,> 100 µM,23.3 µM,> 100 µM,0.048 µM,> 100 µM,0.114 µM,> 100 µM,0.0102,> 100 µM,0.0268 µM,> 100 µM,0.0378,> 100 µM,0.0292 µM,> 100 µM
C/C(=C1/N=C(c2ccccc2)OC1=O)c1ccc(C)cc1,,> 100 µM,,> 100 µM,,> 100 µM,,> 100 µM,,> 100 µM,,> 100 µM,,> 100 µM,,> 100 µM,,> 100 µM,,> 100 µM
O=C(CCc1ccco1)NC1CCN(CC2(c3ccc(Cl)cc3)CCC2)CC1,0.0318,11.9 µM,6.93,28.7 µM,16.9 µM,31.7 µM,10.3 µM,39.2 µM,15.6 µM,32.4 µM,13.6 µM,31.4 µM,11.5,26.7 µM,13.5 µM,27.6 µM,15.9,30.8 µM,8.37 µM,32.9 µM
COc1cc(/C=C/C(=O)NC[C@]2(O)CCC3C4CCc5cc(O)ccc5C4CCC32C)ccc1O (stereo partly drawn),74.1,> 100 µM,1.53,59.7 µM,38.8 µM,> 100 µM,7.49 µM,> 100 µM,10.3 µM,> 100 µM,67.6 µM,> 100 µM,13.4,> 100 µM,8.36 µM,> 100 µM,16.8,> 100 µM,3.9 µM,32.7 µM
COc1cc(CNc2nc3cc(N)cc(N)c3nc2-c2ccccc2)cc(OC)c1OC,6.34,14.7 µM,0.897,> 50 µM,16.1 µM,> 50 µM,,,1.15 µM,3.42 µM,3 µM,33.4 µM,1.55,> 50 µM,3.19 µM,10.4 µM,8.09,15.5 µM,12.4 µM,> 50 µM
CN(C)c1ccc(/C=C/c2ccnc3ccc4ccccc4c23)cc1,,69.1 µM,,> 100 µM,,> 100 µM,,,,> 100 µM,,> 100 µM,,> 100 µM,,> 100 µM,,> 100 µM,,> 100 µM
